Values joined by “and” are separate entries in the source; they are usually repeats but may differ in a detail not shown here. Identical values can stand only once.
How the values were obtained:
galanin receptor = test: Galanin Agonism/Antagonism, rat ileum; format: cell-based; conditions: Peptide 30 μM
Protocol: (§1) For in vivo assay, distilled water and saline was used as vehicle in oral and intraperitoneal administration, respectively. Dosing volume was 20 ml/kg for mice or 10 ml/kg for rats.
A segment of ileum obtained from Wistar derived male or female rats weighing 275±25 gms and sacrificed by CO2 overexposure was used. The tissue was placed under 1 g tension in a 10 ml bath containing Kreb's solution pH 7.4 at 32° C. Test substance (30 μM)-induced contraction 50 percent or more (≧50%) within 5 minutes, relative to control 0.1 μM galanin response, indicated possible galanin receptor agonist activity. Atha test substance concentration where no significant agonist activity was seen, ability to reduce the galanin-induced contractile response […] or more (≧50%) indicated galanin receptor antagonist activity. Each concentration was tested on two separate preparations.

[1] = test system: Protein Kinase C, Non-Select.; test: Protein Kinase C, Non-Select. enzyme assay; format: biochemical, rat; conditions: 300.0 μM; average of duplicate; negative = stimulation
Protocol: (§2) The peptide was further screened in vitro in a variety of enzyme and biochemical assays. Methods employed were adapted from the scientific literature to maximize reliability and reproducibility. The primary literature reference for each assay is listed in Table 11 opposite the results for each assay.
(§3) Results presented in Table 10, “Results,” are the average of duplicate determinations, unless otherwise noted.
(§4) Reference compounds were tested concurrently at 5 concentrations as an integral part of each assay to ensure the validity of the results obtained.
(§5) Enzyme assays were performed under conditions described in Table 8, “Experimental Conditions.”. The commercial suppliers and catalog numbers of substrates employed in this study are given in Table 7, “Material Sources.” The name, commercial source, and catalog numbers of concurrent reference compounds (controls) employed in this study are given in Table 9, “Reference Compound Data.” The reaction catalyzed by each enzyme is listed in Table 8, “Experimental Conditions.”
(§6) Biochemical assay results are presented in Table 10, as the percent inhibition of specific binding or activity, and unless noted are the average of duplicate tubes tested at each concentration.

PAF-induced mortality = test: Platelet Activating Factor (PAF) Antagonism; format: in vivo, mouse; conditions: Peptide 100 mg/kg, WEB-2086 3 mg/kg
Protocol: as §1
Groups of 5 male ICR mice weighing 22±2 gms were employed. At dose of 100 mg/kg test substance dissolved in a vehicle of distilled water were administered orally. The control group received vehicle alone. At 60 minutes after dosing, the animals were injected intravenously PAF-acether ([…] IV, dissolved in 0.25% BSA). One hour later, the survival animals were recorded. The prevention of PAF-induced mortality in 50 percent or more (≧50%) of mice indicated significant activity.

[2] = test system: croton oil-induced ear inflammation; test: Mouse-ear edema model (croton oil); format: in vivo; conditions: 20 λ of 5% peptide in carbopol topically 30 min after 10% croton oil, ear biopsy weight at 24 hrs
Source text: Mouse-ear edema model. Croton-oil, which contains a variety of phorbol esters, and arachidonic acid (AA) are standard inducers of inflammation in mouse ears when applied topically. Phorbol esters, especially phorbol myristyl acetate (PMA), activate one or more isozymes of the ubiquitous membrane receptor, protein kinase C (PKC), which in turn initiates several metabolic cascades leading to inflammation. As is a substrate for one of these cascades, leading to prostaglandin and leukotriene production, both of which are inflammatory. Inhibition of such inflammation by a putative bioactive agent is considered a generalized indicator of potential pharmacologic activity.
Male Swiss Webster mice (15-20 g) were purchased from B&K Universal, Kent, Wash. and maintained in the laboratory for one day prior to entering the experiment. At t=0, the ventral side of both ears of each mouse was challenged topically with 10 λ of 10% croton oil in acetone. […] The animals were sacrificed by cervical dislocation at t=24 hrs, the ears removed, and a biopsy take from each ear with an 8 mm punch. The biopsy was immediately weighed on a 4-place balance.

Cyclooxygenase-1 = molecular target: T1, Cyclooxygenase-1 (Ovis aries, UniProt P05979); test: Cyclooxygenase-1 enzyme assay; format: biochemical, ram; conditions: 300.0 μM; average of duplicate; negative = stimulation
T1 construct: ram seminal; from tissue; host or cells: ram seminal vesicle
T1 sequence (P05979 25-600): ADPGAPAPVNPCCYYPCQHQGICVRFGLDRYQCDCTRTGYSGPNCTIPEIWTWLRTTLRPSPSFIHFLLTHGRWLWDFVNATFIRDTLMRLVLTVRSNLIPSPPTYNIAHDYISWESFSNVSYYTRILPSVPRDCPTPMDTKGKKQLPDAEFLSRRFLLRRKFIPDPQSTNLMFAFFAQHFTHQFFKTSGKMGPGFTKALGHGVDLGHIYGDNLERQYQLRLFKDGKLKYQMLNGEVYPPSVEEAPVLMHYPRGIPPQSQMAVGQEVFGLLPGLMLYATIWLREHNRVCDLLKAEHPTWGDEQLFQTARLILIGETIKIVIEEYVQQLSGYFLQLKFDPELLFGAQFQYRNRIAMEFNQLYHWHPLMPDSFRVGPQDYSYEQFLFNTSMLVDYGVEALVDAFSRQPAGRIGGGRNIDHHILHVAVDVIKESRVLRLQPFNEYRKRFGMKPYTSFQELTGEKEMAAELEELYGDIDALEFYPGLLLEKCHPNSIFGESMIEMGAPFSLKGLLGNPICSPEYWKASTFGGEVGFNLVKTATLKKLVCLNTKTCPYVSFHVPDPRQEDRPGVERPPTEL
Protocol: The peptide was further screened in vitro in a variety of enzyme and biochemical assays. Methods employed were adapted from the scientific literature to maximize reliability and reproducibility.
Unless otherwise indicated, the peptide was tested in duplicate at the concentrations indicated for each assay. Results presented in Table 10, “Results,” are the average of duplicate determinations, unless otherwise noted.
as §5, §6

Histamine H3 = molecular target: T2, Histamine H3 (Rattus norvegicus, UniProt Q9QYN8); test: Histamine H3 radioligand binding; conditions: 10.0 μM; specific binding of [3H]NAMH; negative = stimulation
T2 construct: rat brain; from tissue; host or cells: rat brain
T2 sequence (Q9QYN8 whole entry): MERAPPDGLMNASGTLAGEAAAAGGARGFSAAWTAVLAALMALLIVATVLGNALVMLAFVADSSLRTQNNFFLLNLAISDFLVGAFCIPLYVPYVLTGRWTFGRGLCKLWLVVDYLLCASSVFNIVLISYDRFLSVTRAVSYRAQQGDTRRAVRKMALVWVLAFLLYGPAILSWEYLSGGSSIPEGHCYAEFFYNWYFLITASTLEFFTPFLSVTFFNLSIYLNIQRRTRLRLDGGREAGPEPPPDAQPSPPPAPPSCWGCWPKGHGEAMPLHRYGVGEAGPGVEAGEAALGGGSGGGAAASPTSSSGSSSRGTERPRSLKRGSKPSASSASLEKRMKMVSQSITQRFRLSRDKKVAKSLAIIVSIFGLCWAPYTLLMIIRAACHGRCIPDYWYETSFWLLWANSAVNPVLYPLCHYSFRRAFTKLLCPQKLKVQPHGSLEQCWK
Protocol: as §2, §3, §4
Radioligand binding assays were performed under conditions described in Table 8, “Experimental Conditions.” Radioligands employed in this study are given in Table 8, and commercial sources and catalog numbers of the radioligands are provided in Table 7, “Material Sources.” Unlabeled, blocking ligands employed this study are listed in Table 8, “Experimenal Conditions,” along with the commercial sources and catalog number of the unlabeled ligand. The concurrent reference compound (control) employed in each assay is listed in Table 9, “Reference Compound Data,” along with the commercial supplier and catalog number of the compound. […]
Maximum total binding and nonspecific binding were determined each time each assay was run. […]
Where inhibition constants (Ki) are presented, the Ki values were calculated using the equation of Cheng and Prusoff (Cheng, Y., Prusoff, W. H., Biochem. Pharmacol. […], 1973) using the observed IC50 of the tested compound, the concentration of radioligand employed in the assay, and the historical values for the Kd of the ligand (obtained experimentally). Where presented, the Hill Coefficient (nH), defining the scope of the competitive binding curve, was calculated using GraphPad Prism. […] Where IC50, Ki, and/or Hill Slope data is presented without Standard Error of the Mean (SEM), data are insufficient to be quantitative, and the values presented (Ki, IC50, nH) should be interpreted with caution. […]

Substance: LEU-PRO-PRO-SER-ARG [Peptide]
- Antagonism, Ave. (galanin receptor; average of two preparations): 12%
- Agonism, Ave. (galanin receptor; average of two preparations, Galanin 0.1 μM): 0%
- Agonism (galanin receptor; individual preparation, contraction within 5 minutes relative to 0.1 μM galanin response, Galanin 0.1 μM): 0%
- Antagonism (galanin receptor; individual preparation, reduction of 0.1 μM galanin-induced contractile response): 24% and 0%
- % Inhibition [1]: −6%
- % Protection (PAF-induced mortality; PO one hour before PAF-acether 100 μg/kg IV): 0%
- No. of Survival (PAF-induced mortality; of 5 mice, one hour after PAF-acether 100 μg/kg IV, PO one hour before): 0
- reduction in swelling compared to vehicle-only treated ears [2]: 61%
- % Inhibition (Cyclooxygenase-1): 2%
- % Inhibition (Histamine H3): −13%

Reference: patent publication US6767890B1, “Peptides having anti-cancer and anti-inflammatory activity” (priority 1998, dated 2004)
